Measurements from PubChem BioAssay (NCI).
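All cell lines were grown in 96-well plates and treated with compound for 48 hours. The concentration for 50% growth inhibition is given as GI50. TGI: concentration producing complete growth inhibition.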

What was measured:
Test in all cases: NCI anticancer screen, dose series, 48 h
SNB-19 CNS = test system: SNB-19 CNS
RPMI-8226 leukemia = test system: RPMI-8226 leukemia
OVCAR-3 ovarian = test system: OVCAR-3 ovarian
NCI-H226 lung = test system: NCI-H226 lung
MDA-MB-231 breast = test system: MDA-MB-231 breast
786-0 renal = test system: 786-0 renal
SF-295 CNS = test system: SF-295 CNS
ACHN renal = test system: ACHN renal
SK-MEL-5 melanoma = test system: SK-MEL-5 melanoma
A498 renal = test system: A498 renal
U251 CNS = test system: U251 CNS
SK-MEL-2 melanoma = test system: SK-MEL-2 melanoma
MOLT-4 leukemia = test system: MOLT-4 leukemia
SR leukemia = test system: SR leukemia
SK-MEL-28 melanoma = test system: SK-MEL-28 melanoma
UACC-257 melanoma = test system: UACC-257 melanoma
CCRF-CEM leukemia = test system: CCRF-CEM leukemia
LOX IMVI melanoma = test system: LOX IMVI melanoma
M14 melanoma = test system: M14 melanoma
T-47D breast = test system: T-47D breast
RXF 393 renal = test system: RXF 393 renal
IGROV1 ovarian = test system: IGROV1 ovarian
A549 NSCLC = test system: A549 NSCLC
HCT-116 colon = test system: HCT-116 colon
NCI/ADR-RES ovarian = test system: NCI/ADR-RES ovarian
MALME-3M melanoma = test system: MALME-3M melanoma
SNB-75 CNS = test system: SNB-75 CNS
HOP-62 NSCLC = test system: HOP-62 NSCLC
NCI-H23 lung = test system: NCI-H23 lung
NCI-H522 lung = test system: NCI-H522 lung
NCI-H460 lung = test system: NCI-H460 lung
MDA-MB-435 = test system: MDA-MB-435
HT29 colon = test system: HT29 colon
UACC-62 melanoma = test system: UACC-62 melanoma
MCF7 breast = test system: MCF7 breast
K-562 leukemia = test system: K-562 leukemia
COLO 205 colon = test system: COLO 205 colon
SW-620 colon = test system: SW-620 colon
DU-145 prostate = test system: DU-145 prostate
OVCAR-5 ovarian = test system: OVCAR-5 ovarian
HCC-2998 colon = test system: HCC-2998 colon
SK-OV-3 ovarian = test system: SK-OV-3 ovarian
KM12 colon = test system: KM12 colon
CAKI-1 renal = test system: CAKI-1 renal
TK-10 renal = test system: TK-10 renal
SN12C renal = test system: SN12C renal
SF-268 CNS = test system: SF-268 CNS
PC-3 prostate = test system: PC-3 prostate
HCT-15 colon = test system: HCT-15 colon
UO-31 renal = test system: UO-31 renal
OVCAR-4 ovarian = test system: OVCAR-4 ovarian
SF-539 CNS = test system: SF-539 CNS
HL-60(TB) leukemia = test system: HL-60(TB) leukemia
BT-549 breast = test system: BT-549 breast
HOP-92 NSCLC = test system: HOP-92 NSCLC
HS 578T breast = test system: HS 578T breast
OVCAR-8 ovarian = test system: OVCAR-8 ovarian

`Cn1cc(C2=C(c3cn(C)c4cc(C(=O)O)ccc34)C(=O)NC2=O)c2ccccc21` gave a GI50 (SNB-19 CNS) greater than 25 µM, a TGI (SNB-19 CNS) greater than 25 µM and a GI50 (RPMI-8226 leukemia) greater than 25 µM. The TGI (RPMI-8226 leukemia) was greater than 25 µM, the GI50 (OVCAR-3 ovarian) was greater than 25 µM and the TGI (OVCAR-3 ovarian) was greater than 25 µM. The GI50 (NCI-H226 lung) was greater than 25 µM, the TGI (NCI-H226 lung) was greater than 25 µM and the GI50 (MDA-MB-231 breast) was greater than 25 µM. It also gave a TGI (MDA-MB-231 breast) greater than 25 µM, a GI50 (786-0 renal) greater than 25 µM and a TGI (786-0 renal) greater than 25 µM. For the same compound, the GI50 (SF-295 CNS) was greater than 25 µM, the TGI (SF-295 CNS) was greater than 25 µM and the GI50 (ACHN renal) was greater than 25 µM. It also gave a TGI (ACHN renal) greater than 25 µM, a GI50 (SK-MEL-5 melanoma) greater than 25 µM and a TGI (SK-MEL-5 melanoma) greater than 25 µM. It also gave a GI50 (A498 renal) greater than 12 µM, a TGI (A498 renal) greater than 25 µM and a GI50 (U251 CNS) greater than 25 µM. For the same compound, the TGI (U251 CNS) was greater than 25 µM, the GI50 (SK-MEL-2 melanoma) was greater than 15.5 µM and the TGI (SK-MEL-2 melanoma) was 25 µM. For the same compound, the GI50 (MOLT-4 leukemia) was greater than 25 µM, the TGI (MOLT-4 leukemia) was greater than 25 µM and the GI50 (SR leukemia) was greater than 13.4 µM. The TGI (SR leukemia) was greater than 25 µM, the GI50 (SK-MEL-28 melanoma) was greater than 25 µM and the TGI (SK-MEL-28 melanoma) was greater than 25 µM. It also gave a GI50 (UACC-257 melanoma) greater than 25 µM, a TGI (UACC-257 melanoma) greater than 25 µM and a GI50 (CCRF-CEM leukemia) greater than 20.4 µM. For the same compound, the TGI (CCRF-CEM leukemia) was greater than 25 µM, the GI50 (LOX IMVI melanoma) was greater than 13.9 µM and the TGI (LOX IMVI melanoma) was greater than 25 µM. It also gave a GI50 (M14 melanoma) greater than 25 µM, a TGI (M14 melanoma) greater than 25 µM and a GI50 (T-47D breast) of 21.1 µM. For the same compound, the TGI (T-47D breast) was greater than 25 µM, the GI50 (RXF 393 renal) was greater than 19.8 µM and the TGI (RXF 393 renal) was greater than 25 µM. The GI50 (IGROV1 ovarian) was greater than 25 µM, the TGI (IGROV1 ovarian) was greater than 25 µM and the GI50 (A549 NSCLC) was greater than 25 µM. For the same compound, the TGI (A549 NSCLC) was greater than 25 µM, the GI50 (HCT-116 colon) was greater than 25 µM and the TGI (HCT-116 colon) was greater than 25 µM. It also gave a GI50 (NCI/ADR-RES ovarian) greater than 25 µM, a TGI (NCI/ADR-RES ovarian) greater than 25 µM and a GI50 (MALME-3M melanoma) greater than 25 µM. For the same compound, the TGI (MALME-3M melanoma) was greater than 25 µM, the GI50 (SNB-75 CNS) was 4.96 µM and the TGI (SNB-75 CNS) was greater than 25 µM. For the same compound, the GI50 (HOP-62 NSCLC) was greater than 25 µM, the TGI (HOP-62 NSCLC) was greater than 25 µM and the GI50 (NCI-H23 lung) was greater than 25 µM. It also gave a TGI (NCI-H23 lung) greater than 25 µM, a GI50 (NCI-H522 lung) greater than 12.1 µM and a TGI (NCI-H522 lung) greater than 20.1 µM. For the same compound, the GI50 (NCI-H460 lung) was greater than 25 µM, the TGI (NCI-H460 lung) was greater than 25 µM and the GI50 (MDA-MB-435) was greater than 25 µM. For the same compound, the TGI (MDA-MB-435) was greater than 25 µM, the GI50 (HT29 colon) was greater than 25 µM and the TGI (HT29 colon) was greater than 25 µM. It also gave a GI50 (UACC-62 melanoma) greater than 25 µM, a TGI (UACC-62 melanoma) greater than 25 µM and a GI50 (MCF7 breast) greater than 25 µM. The TGI (MCF7 breast) was greater than 25 µM, the GI50 (K-562 leukemia) was greater than 25 µM and the TGI (K-562 leukemia) was greater than 25 µM. It also gave a GI50 (COLO 205 colon) greater than 25 µM, a TGI (COLO 205 colon) greater than 25 µM and a GI50 (SW-620 colon) greater than 25 µM. The TGI (SW-620 colon) was greater than 25 µM, the GI50 (DU-145 prostate) was greater than 25 µM and the TGI (DU-145 prostate) was greater than 25 µM. It also gave a GI50 (OVCAR-5 ovarian) greater than 25 µM, a TGI (OVCAR-5 ovarian) greater than 25 µM and a GI50 (HCC-2998 colon) greater than 25 µM. The TGI (HCC-2998 colon) was greater than 25 µM, the GI50 (SK-OV-3 ovarian) was greater than 25 µM and the TGI (SK-OV-3 ovarian) was greater than 25 µM. The GI50 (KM12 colon) was greater than 25 µM, the TGI (KM12 colon) was greater than 25 µM and the GI50 (CAKI-1 renal) was greater than 17.2 µM. It also gave a TGI (CAKI-1 renal) greater than 25 µM, a GI50 (TK-10 renal) greater than 25 µM and a TGI (TK-10 renal) greater than 25 µM. The GI50 (SN12C renal) was greater than 25 µM, the TGI (SN12C renal) was greater than 25 µM and the GI50 (SF-268 CNS) was greater than 25 µM. It also gave a TGI (SF-268 CNS) greater than 25 µM, a GI50 (PC-3 prostate) greater than 25 µM and a TGI (PC-3 prostate) greater than 25 µM. For the same compound, the GI50 (HCT-15 colon) was greater than 25 µM, the TGI (HCT-15 colon) was greater than 25 µM and the GI50 (UO-31 renal) was greater than 25 µM. For the same compound, the TGI (UO-31 renal) was greater than 25 µM, the GI50 (OVCAR-4 ovarian) was greater than 25 µM and the TGI (OVCAR-4 ovarian) was greater than 25 µM. It also gave a GI50 (SF-539 CNS) greater than 25 µM, a TGI (SF-539 CNS) greater than 25 µM and a GI50 (HL-60(TB) leukemia) greater than 25 µM. For the same compound, the TGI (HL-60(TB) leukemia) was greater than 25 µM, the GI50 (BT-549 breast) was greater than 25 µM and the TGI (BT-549 breast) was greater than 25 µM. The GI50 (HOP-92 NSCLC) was greater than 25 µM, the TGI (HOP-92 NSCLC) was greater than 25 µM and the GI50 (HS 578T breast) was 5.86 µM. It also gave a TGI (HS 578T breast) greater than 25 µM, a GI50 (OVCAR-8 ovarian) greater than 25 µM and a TGI (OVCAR-8 ovarian) greater than 25 µM.
